Reference: patent US20240122182A1, “PESTICIDALLY ACTIVE HETEROCYCLIC DERIVATIVES WITH SULFUR CONTAINING SUBSTITUENTS” (SYNGENTA CROP PROTECTION AG, priority 2021, published 2024)

Assays:
Format in all cases: in vivo
[1] = tested on: Chilo suppressalis (Striped Rice Stemborer); assay: Activity against Chilo suppressalis (striped rice stemborer), artificial diet; conditions: 144 h, application rate of 200 ppm, L2 larvae, 6 days after infestation, read-out: control (mortality, anti-feeding effect, growth inhibition)
Description: 24-well microtiter plates with artificial diet were treated with aqueous test solutions prepared from 10′000 ppm DMSO stock solutions by pipetting. After drying, the plates were infested with L2 larvae (6-8 per well). The samples were assessed for mortality, anti-feeding effect, and growth inhibition in comparison to untreated samples 6 days after infestation. Control of Chilo suppressalis by a test sample is given when at least one of the categories mortality, anti-feedant effect, and growth inhibition is higher than the untreated sample.

[2] = tested on: Spodoptera littoralis (Egyptian Cotton Leaf Worm); assay: Activity against Spodoptera littoralis (Egyptian cotton leaf worm), cotton leaf discs sprayed; conditions: foliar, 72 h, application rate of 200 ppm, L1 larvae, 3 days after infestation, read-out: control (mortality, anti-feeding effect, growth inhibition)
Description: Cotton leaf discs were placed onto agar in 24-well microtiter plates and sprayed with aqueous test solutions prepared from 10′000 ppm DMSO stock solutions. After drying the leaf discs were infested with five L1 larvae. The samples were assessed for mortality, anti-feeding effect, and growth inhibition in comparison to untreated samples 3 days after infestation. Control of Spodoptera littoralis by a test sample is given when at least one of the categories mortality, anti-feedant effect, and growth inhibition is higher than the untreated sample.

[3] = tested on: Myzus persicae (Green Peach Aphid); assay: Activity against Myzus persicae (green peach aphid), feeding/contact activity; conditions: 144 h, application rate of 200 ppm, mixed ages, 6 days after infestation
Description: Sunflower leaf discs were placed onto agar in a 24-well microtiter plate and sprayed with aqueous test solutions prepared from 10′000 ppm DMSO stock solutions. After drying, the leaf discs were infested with an aphid population of mixed ages. The samples were assessed for mortality 6 days after infestation.

[4] = tested on: Myzus persicae (Green Peach Aphid); assay: Activity against Myzus persicae (green peach aphid), systemic activity; conditions: 144 h, test rate of 24 ppm, pea seedling roots in test solution, 6 days
Description: Roots of pea seedlings infested with an aphid population of mixed ages were placed directly into aqueous test solutions prepared from 10′000 DMSO stock solutions. The samples were assessed for mortality 6 days after placing seedlings into test solutions.

[5] = tested on: Euschistus heros (Neotropical Brown Stink Bug); assay: Activity against Euschistus heros (neotropical brown stink bug), soybean leaves sprayed; conditions: 120 h, application rate of 200 ppm, N2 nymphs, 5 days after infestation, read-out: effect in at least one of the two categories (mortality or growth inhibition)
Description: Soybean leaves on agar in 24-well microtiter plates were sprayed with aqueous test solutions prepared from 10′000 ppm DMSO stock solutions. After drying the leaves were infested with N2 nymphs. The samples were assessed for mortality and growth inhibition in comparison to untreated samples 5 days after infestation.

[6] = tested on: Diabrotica Balteata (Corn Root Worm); assay: Activity against Diabrotica balteata (corn root worm), maize sprouts sprayed; conditions: 96 h, application rate of 200 ppm, L2 larvae, 4 days after infestation, read-out: effect in at least one of the two categories (mortality or growth inhibition)
Description: Maize sprouts placed onto an agar layer in 24-well microtiter plates were treated with aqueous test solutions prepared from 10′000 ppm DMSO stock solutions by spraying. After drying, the plates were infested with L2 larvae (6 to 10 per well). The samples were assessed for mortality and growth inhibition in comparison to untreated samples 4 days after infestation.

[7] = tested on: Plutella xylostella (Diamond Back Moth); assay: Activity against Plutella xylostella (diamond back moth), artificial diet; conditions: 192 h, application rate of 200 ppm, eggs, 8 days after infestation, read-out: effect in at least one of the two categories (mortality or growth inhibition)
Description: 24-well microtiter plates with artificial diet were treated with aqueous test solutions prepared from 10′000 ppm DMSO stock solutions by pipetting. After drying, Plutella eggs were pipetted through a plastic stencil onto a gel blotting paper and the plate was closed with it. The samples were assessed for mortality and growth inhibition in comparison to untreated samples 8 days after infestation.

[8] = tested on: Bemisia tabaci (Cotton White Fly); assay: Activity against Bemisia tabaci (cotton white fly), cotton leaf discs sprayed; conditions: foliar, 144 h, application rate of 200 ppm, adult white flies, 6 days after incubation
Description: Cotton leaf discs were placed on agar in 24-well microtiter plates and sprayed with aqueous test solutions prepared from 10′000 ppm DMSO stock solutions. After drying the leaf discs were infested with adult white flies. The samples were checked for mortality 6 days after incubation.

[9] = tested on: Carpocapsa (Cydia) Pomonella (Codling Moth); assay: Activity against Carpocapsa (Cydia) pomonella (codling moth), larvicide, feeding/contact; conditions: 336 h, application rate of 12.5 ppm, L1 larvae, 14 days after infestation, read-out: effect in at least one of the two categories (mortality or growth inhibition)
Description: Diet cubes coated with paraffin were sprayed with diluted test solutions in an application chamber. After drying off the treated cubes (10 replicates) were infested with 1 L1 larvae. Samples were incubated at 26-27° C. and checked 14 days after infestation for mortality and growth inhibition. The following compounds gave an effect of at least 80% in at least one of the two categories (mortality or growth inhibition) at an application rate of 12.5 ppm: P1, P2, P3, P5, P9, P10, P11, P12, P14, P17, P19, P20, P21, P23, P24, P30, P31.

[10] = tested on: Nilaparvata lugens (Brown Plant Hopper); assay: Activity against Nilaparvata lugens (brown plant hopper), larvicide, systemic into water; conditions: 168 h, application rate of 12.5 ppm, N3 nymphs, 7 days after infestation
Description: Larvicide, systemic into water Rice plants cultivated in a nutritive solution were treated with the diluted test solutions into nourishing cultivation system. 1 day after application plants were infested with ˜20 N3 nymphs. 7 days after infestation samples were assessed for mortality and growth regulation.

CCS(=O)(=O)c1ccc(-c2ncccn2)nc1-c1cc2c(cn1)N(CC(F)(F)C(F)(F)F)C(=O)CC2 [P22, 6-(3-ethylsulfonyl-6-pyrimidin-2-yl-2-pyridyl)-1-(2,2,3,3,3-pentafluoropropyl)-3,4-dihydro-1,7-naphthyridin-2-one]
≥ 80%: mortality at 200 ppm [1] | mortality at 200 ppm [2] | mortality at 200 ppm [3] | mortality at 24 ppm [4] | percent effect (mortality or growth inhibition) at 200 ppm [5] | percent effect (mortality or growth inhibition) at 200 ppm [6] | percent effect (mortality or growth inhibition) at 200 ppm [7]

CCS(=O)(=O)c1cc(C2(C#N)CC2)cnc1-c1cc2c(cn1)N(CC(F)(F)C(F)(F)F)C(=O)CC2 [P12, 1-[5-ethylsulfonyl-6-[2-oxo-1-(2,2,3,3,3-pentafluoropropyl)-3,4-dihydro-1,7-naphthyridin-6-yl]-3-pyridyl]cyclopropanecarbonitrile]
≥ 80%: mortality at 200 ppm [8] | mortality at 200 ppm [1] | mortality at 200 ppm [2] | mortality at 200 ppm [3] | mortality at 24 ppm [4] | percent effect (mortality or growth inhibition) at 200 ppm [5] | percent effect (mortality or growth inhibition) at 200 ppm [6] | percent effect (mortality or growth inhibition) at 12.5 ppm [9] | mortality at 12.5 ppm [10] | percent effect (mortality or growth inhibition) at 200 ppm [7]

CCS(=O)(=O)c1cc(C2(C#N)CC2)cnc1-c1cc2c(cn1)N(CC(F)(F)C(F)(F)F)C(=O)OC2 [P3, 1-[5-ethylsulfonyl-6-[2-oxo-1-(2,2,3,3,3-pentafluoropropyl)-4H-pyrido[3,4-d][1,3]oxazin-6-yl]-3-pyridyl]cyclopropanecarbonitrile]
≥ 80%: mortality at 200 ppm [8] | mortality at 200 ppm [1] | mortality at 200 ppm [2] | mortality at 200 ppm [3] | percent effect (mortality or growth inhibition) at 200 ppm [5] | percent effect (mortality or growth inhibition) at 200 ppm [6] | percent effect (mortality or growth inhibition) at 12.5 ppm [9] | mortality at 12.5 ppm [10] | percent effect (mortality or growth inhibition) at 200 ppm [7]

CCS(=O)(=O)c1cc(C2(C#N)CC2)cnc1-c1cc2c(cn1)N(CC(F)(F)F)C(=O)CC2 [P2, 1-[5-ethylsulfonyl-6-[2-oxo-1-(2,2,2-trifluoroethyl)-3,4-dihydro-1,7-naphthyridin-6-yl]-3-pyridyl]cyclopropanecarbonitrile]
≥ 80%: mortality at 200 ppm [8] | mortality at 200 ppm [1] | mortality at 200 ppm [2] | mortality at 200 ppm [3] | mortality at 24 ppm [4] | percent effect (mortality or growth inhibition) at 200 ppm [5] | percent effect (mortality or growth inhibition) at 200 ppm [6] | percent effect (mortality or growth inhibition) at 12.5 ppm [9] | mortality at 12.5 ppm [10] | percent effect (mortality or growth inhibition) at 200 ppm [7]

CCS(=O)(=O)c1cc(N(C)C(C)=O)cnc1-c1cc2c(cn1)N(CC(F)(F)C(F)(F)F)C(=O)CC2 [P8, N-[5-ethylsulfonyl-6-[2-oxo-1-(2,2,3,3,3-pentafluoropropyl)-3,4-dihydro-1,7-naphthyridin-6-yl]-3-pyridyl]-N-methyl-acetamide]
≥ 80%: mortality at 200 ppm [1] | mortality at 200 ppm [2] | mortality at 200 ppm [3] | mortality at 24 ppm [4] | percent effect (mortality or growth inhibition) at 200 ppm [5] | percent effect (mortality or growth inhibition) at 200 ppm [7]

CCS(=O)(=O)c1cc(C(C)(C)C#N)cnc1-c1cc2c(cn1)N(CC(F)(F)C(F)(F)F)C(=O)CC2 [P11, 2-[5-ethylsulfonyl-6-[2-oxo-1-(2,2,3,3,3-pentafluoropropyl)-3,4-dihydro-1,7-naphthyridin-6-yl]-3-pyridyl]-2-methyl-propanenitrile]
≥ 80%: mortality at 200 ppm [8] | mortality at 200 ppm [1] | mortality at 200 ppm [2] | mortality at 200 ppm [3] | mortality at 24 ppm [4] | percent effect (mortality or growth inhibition) at 200 ppm [5] | percent effect (mortality or growth inhibition) at 200 ppm [6] | percent effect (mortality or growth inhibition) at 12.5 ppm [9] | mortality at 12.5 ppm [10] | percent effect (mortality or growth inhibition) at 200 ppm [7]

CCS(=O)(=O)c1cccnc1-c1cc2c(cn1)N(CC(F)(F)C(F)(F)F)C(=O)CC2 [P1, 6-(3-ethylsulfonyl-2-pyridyl)-1-(2,2,3,3,3-pentafluoropropyl)-3,4-dihydro-1,7-naphthyridin-2-one]
≥ 80%: mortality at 200 ppm [1] | mortality at 200 ppm [2] | mortality at 200 ppm [3] | mortality at 24 ppm [4] | percent effect (mortality or growth inhibition) at 200 ppm [5] | percent effect (mortality or growth inhibition) at 200 ppm [6] | percent effect (mortality or growth inhibition) at 12.5 ppm [9] | mortality at 12.5 ppm [10] | percent effect (mortality or growth inhibition) at 200 ppm [7]

CCS(=O)(=O)c1cc(C(C)(C)C#N)cnc1-c1cc2c(cn1)N(CC(F)(F)C(F)(F)F)C(=O)OC2 [P15, 2-[5-ethylsulfonyl-6-[2-oxo-1-(2,2,3,3,3-pentafluoropropyl)-4H-pyrido[3,4-d][1,3]oxazin-6-yl]-3-pyridyl]-2-methyl-propanenitrile]
≥ 80%: mortality at 200 ppm [1] | mortality at 200 ppm [2] | mortality at 200 ppm [3] | mortality at 24 ppm [4] | percent effect (mortality or growth inhibition) at 200 ppm [5] | percent effect (mortality or growth inhibition) at 200 ppm [6] | percent effect (mortality or growth inhibition) at 200 ppm [7]
